# Measurements from patent publication US20210293825A1, “METHODS FOR PRECISION THERAPEUTIC TARGETING OF HUMAN CANCER CELL MOTILITY AND KITS THEREOF” (UNITED STATES GOVERNMENT AS REPRESENTED BY THE DEPARTMENT …, priority 2018, published 2021).
# Columns and labels:
# NCI 60 cell line panel = NCI 60 cell line panel screening; assay type: cell-based; conditions: initial screening per DTP protocol
# Source text: KBU2046 was submitted to the Developmental Therapeutics Program (DTP) of the US National Cancer Institute (NCI), underwent initial screening across the NCI 60 cell line panel per DTP protocol (Shoemaker, R. H., Nat Rev Cancer 6, 813-23 (2006)) and the resultant COMPARE diagram is depicted herein.
# [1] = system: protein phosphorylation in PC3-M and PC3 cells; assay: KinomeView phospho-motif antibody screen; assay type: cell-based, human; conditions: 10 μM, 3 days, ±TGFβ
# Source text: Seeking to identify KBU2046's biological target(s), alternative methods were pursued. The KinomeView® panel of antibodies (Cell Signaling Technology, Inc.) detect established protein phosphorylation motifs, and were used to probe for KBU2046-induced changes in protein phosphorylation (FIG. 4a and FIG. 17). Phosphoprotein changes that met the following criteria were prioritized: were induced in cells in vitro as well as in tumors of treated mice (from FIG. 2a), that counteracted transforming growth factor β (TGFβ)-induced effects, and that were reproducible. TGFβ is ubiquitous in vivo, is known to increase PCa cell invasion (Huang, X. et al., Cancer Research 65, 3470-8 (2005)), and KBU2046's anti-invasion efficacy remains in spite of TGFβ-stimulated increases in cell invasion (FIG. 18). Genistein was evaluated under identical treatment conditions for comparison. […] In tumors of treated animals KBU2046 had this same effect on this 83 kDa protein band (green arrow in FIG. 17a). The high molecular selectivity of KBU2046 was further supported by its failure to inhibit over 400 different protein kinases and 20 phosphatases examined, in three different in vitro assay systems (see, Example 1).
# Phospho-proteomic Analysis. The Kinoview™ and PhosphoScan™ assays were performed by Cell Signaling Technology Inc. […]
# [2] = system: RAF1 in PC3 and PC3-M cells; assay: RAF1-Ser338 phosphorylation in prostate cancer cells (Western blot); assay type: cell-based, human; conditions: 10 μM
# Description: PC3 and PC3-M human prostate cancer cells were treated with 10 μM KBU2046 for the indicated lengths of time; control cells (C) were treated with vehicle. Levels of RAF1-Ser^338 phosphorylation (pRaf1), total RAF1, and GAPDH proteins were then measured by Western blot.
# estrogen receptor (ER) = target: T1, estrogen receptor (ER) (Homo sapiens, UniProt P03372); assay: pERE-Luc estrogen receptor reporter assay in MCF-7 cells; assay type: cell-based; conditions: 24 hours, micromolar concentrations
# T1 construct: estrogen receptor positive MCF-7 cells; endogenous in cells; host or cells: MCF-7
# Source text: Values are the mean±SD of a single experiment, with similar results seen in a separate repeat experiment, both in replicates of N=2.
# Constructs, Transfection, and Luciferase Assays. Constructs were purchased or gifts: constitutive active MEK4EE (MAP2K4-EE; residues 37-399; Addgene, plasmid 14813), pRL-TK-Renilla luciferase (Promega), pCMV-β-galactosidase (Agilent Technologies), and pcDNA-GFP (Invitrogen), HSP90β was from Pawel Bieganowski (Mossakowski Medical Research Center PAS, Poland) (Zurawska, A. et al., Biochim Biophys Acta 1803, 575-83 (2010)), estrogen responsive promoter-luciferase reporter construct, pERE-Luc, was from Craig Jordan (Georgetown University) (Catherino, W. H. et al., Cancer Lett 92, 39-47 (1995)), human CDC37 in pET15b plasmid was from Avrom Caplan (City College of New York) (Rao, J. et al., J Biol Chem 276, 5814-20 (2001)). siRNA used Dharmacon ON-Targetplus SMARTpool™ siRNA directed against HSP90β (cat #L-005187-00-0010) non-targeting siRNA (cat #D-001810-10-05), used TransIT-LT1 Transfection Reagent (Mirus Bio LLC), or with Dharmafect Duo (Thermo Scientific, Lafayette, Colo.) for co-delivery of plasmid. Luciferase assays were performed as described (Breen, M. J. et al., PLoS One 8, e72407 (2013)).
# Luciferase activity was measured, normalized to that of β-gal, and values expressed as the percent of untreated vector control cells.
# [3] = system: phosphorylated Ser226 on HSP90β; assay: PhosphoScan LC-MS/MS proteomic analysis in PC3 cells; assay type: cell-based, human; conditions: 10 μM 3 days, then TGFβ
# Description: The 83 kDa protein was identified by pretreating PC3 cells with KBU2046 or vehicle control, treating with TGFβ and performing LC-MS/MS analysis on proteins pulled down by the KinomeView® antibody used in FIG. 4a. Resultant data were analyzed with the SEQUEST/Sorcerer data analysis suite, and proteins further selected based upon predetermined parameters (FIG. 19).
# Phospho-proteomic Analysis. The Kinoview™ and PhosphoScan™ assays were performed by Cell Signaling Technology Inc.
# Proteins bound in this manner were analyzed in replicates of N=2 using PhosphoScan™ technology. This identified 483 phosphopeptide assignments from 306 parent proteins, with a mean false discovery rate of 0.30% (estimated via Sorcerer search of composite human database of forward and reverse protein entries). Proteins were considered if the average values for treatment and control were each 3 times that of background. Further, it was required that each of the N=2 replicate values (used to calculate the average) to be >/=2.5 fold above background. Interest was focused on which protein decreased with KBU2046, and it was required that the decrease be >/=2.5 fold, compared to control. According to these parameters, there were 19 phospho-proteins whose expression decreased in cells treated with KBU2046, compared to control. These are depicted herein. […]
# [4] = system: 442 kinases, including 400 distinct parental kinases plus mutants; assay: KINOMEscan assay (Ambit Biosciences); assay type: binding; conditions: tested at 10 μM
# Source text: Kinase assay system #1. The KINOMEscan™ assay (Ambit Biosciences). This assay evaluates 442 kinases, including 400 distinct parental kinases plus mutants known to alter activity or responsiveness. It does so in the context of an assay that measures the ability of putative inhibitors to inhibit binding of bacterial purified kinase to immobilized phospho-acceptor protein substrate. This approach has been successfully to identify kinase interactions of several small molecule kinase inhibitors (Fabian, M. A. et al., Nat Biotechnol 23, 329-36 (2005); and Karaman, M. W. et al., Nat Biotechnol 26, 127-32 (2008)). KBU2046 was tested at 10 μM. […] There were two initial false positives (for a false positive rate of 0.4%), that were subsequently found to be negative in a dedicated follow up analysis. Specific and important negative findings include MKK4, p38 MAPK (α, β, γ and δ isoforms) and RAF1. Conclusions: there was no evidence that KBU2046 inhibits kinase function by competing for phospho-acceptor binding.
# T1 sequence (P03372 whole entry): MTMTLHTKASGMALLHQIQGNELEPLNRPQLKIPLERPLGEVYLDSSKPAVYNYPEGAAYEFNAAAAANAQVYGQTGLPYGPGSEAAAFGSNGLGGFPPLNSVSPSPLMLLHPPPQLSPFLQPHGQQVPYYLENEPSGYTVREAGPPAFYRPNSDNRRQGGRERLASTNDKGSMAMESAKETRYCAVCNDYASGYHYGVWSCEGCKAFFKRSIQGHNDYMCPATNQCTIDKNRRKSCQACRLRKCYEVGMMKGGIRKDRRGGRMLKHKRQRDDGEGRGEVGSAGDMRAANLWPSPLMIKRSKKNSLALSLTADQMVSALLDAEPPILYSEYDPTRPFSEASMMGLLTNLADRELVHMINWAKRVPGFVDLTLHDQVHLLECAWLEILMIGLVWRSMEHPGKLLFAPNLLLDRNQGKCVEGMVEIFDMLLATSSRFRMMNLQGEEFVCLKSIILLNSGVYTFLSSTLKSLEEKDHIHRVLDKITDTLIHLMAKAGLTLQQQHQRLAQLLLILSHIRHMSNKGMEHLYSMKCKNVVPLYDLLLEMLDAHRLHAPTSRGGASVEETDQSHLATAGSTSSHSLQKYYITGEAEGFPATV
compound,measurement,setting,value
"O=C1c2ccccc2OCC1c1ccc(F)cc1 (racemic) [KBU2046, (±)-3(4-fluorophenyl)chroman-4-one]",cell toxicity,NCI 60 cell line panel,minimal-to-no cell toxicity
same,changes in protein phosphorylation,[1],induced a single change that met the pre-specified criteria
same,levels of phospho-RAF1,[2],decreased levels of phospho-RAF1 in a time-dependent manner
same,activation of the estrogen receptor,estrogen receptor (ER),does not activate the estrogen receptor (ER)
same,decrease of abundance of phosphorylated Ser226 on HSP90β,[3],6.6 fold
same,inhibition of kinase binding to immobilized phospho-acceptor substrate,[4],completely negative
